From PubChem BioAssay AID2060504 (Molecular Pharmacology Branch, DTP, NCI, 2025)
pIC50: −log10 of the molar value.

Tested on: 636577-100-R-J1-PDC complex spheroid viability
Assay: Anticancer human tumor 636577-100-R-J1-PDC patient-derived endometrial adenocarcinoma cell line growth inhibition [GQUAD]
Conditions: for pIC50: curve of first compound; for viability, T/C: stronger effect = lower value
Procedure, shortened: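 Tumor cells were grown as complex spheroids with HUVEC endothelial cells and mesenchymal stem cells as stroma. G-quadruplex stabilizers were combined with targeted agents over half-log dilutions from near the clinical Cmax, or from 10 microM.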

[1] = second compound 0.0316 µM, first compound 0.0316 µM
[2] = second compound 0.0316 µM, first compound 0.1 µM
[3] = second compound 0.0316 µM, first compound 0.316 µM
[4] = second compound 0.0316 µM, first compound 1 µM
[5] = second compound 0.0316 µM, first compound 3.16 µM
[6] = second compound 0.0316 µM, first compound 10 µM
[7] = second compound 0.1 µM, first compound 0.0316 µM
[8] = second compound 0.1 µM, first compound 0.1 µM
[9] = second compound 0.1 µM, first compound 0.316 µM
[10] = second compound 0.1 µM, first compound 1 µM
[11] = second compound 0.1 µM, first compound 3.16 µM
[12] = second compound 0.1 µM, first compound 10 µM
[13] = second compound 0.316 µM, first compound 0.0316 µM
[14] = second compound 0.316 µM, first compound 0.1 µM
[15] = second compound 0.316 µM, first compound 0.316 µM
[16] = second compound 0.316 µM, first compound 1 µM
[17] = second compound 0.316 µM, first compound 3.16 µM
[18] = second compound 0.316 µM, first compound 10 µM
[19] = second compound 1 µM, first compound 0.0316 µM
[20] = second compound 1 µM, first compound 0.1 µM
[21] = second compound 1 µM, first compound 0.316 µM
[22] = second compound 1 µM, first compound 1 µM
[23] = second compound 1 µM, first compound 3.16 µM
[24] = second compound 1 µM, first compound 10 µM
[25] = second compound 3.16 µM, first compound 0.0316 µM
[26] = second compound 3.16 µM, first compound 0.1 µM
[27] = second compound 3.16 µM, first compound 0.316 µM
[28] = second compound 3.16 µM, first compound 1 µM
[29] = second compound 3.16 µM, first compound 3.16 µM
[30] = second compound 3.16 µM, first compound 10 µM
[31] = second compound 10 µM, first compound 0.0316 µM
[32] = second compound 10 µM, first compound 0.1 µM
[33] = second compound 10 µM, first compound 0.316 µM
[34] = second compound 10 µM, first compound 1 µM
[35] = second compound 10 µM, first compound 3.16 µM
[36] = second compound 10 µM, first compound 10 µM
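Further: viability read after seven days of drug exposure.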
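Wherever viability, T/C is given: luminescence signal used as a proxy for viable cells; 100% = DMSO vehicle control wells.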

For `CC(C)(O)C1CCC(Nc2ccc3ncc(-c4cccc(C(F)(F)F)c4)n3n2)CC1` (stereo not drawn) + Cc1[nH]c2ccc(F)cc2c1-c1nc2c3cccnc3c3ncccc3c2[nH]1, the pIC50 (second compound 0.0316 µM) was 5.96, the pIC50 (second compound 0.1 µM) was 6.01 and the pIC50 (second compound 0.316 µM) was 5.75. The pIC50 (second compound 1 µM) was 5.73, the pIC50 (second compound 3.16 µM) was over 7.50 and the pIC50 (second compound 10 µM) was over 7.50. It also gave a viability, T/C [1] of 92.8%, a viability, T/C [2] of 75.9% and a viability, T/C [3] of 111%. The viability, T/C [4] was 51.3%, the viability, T/C [5] was 35.5% and the viability, T/C [6] was 32.2%. It also gave a viability, T/C [7] of 90.7%, a viability, T/C [8] of 79.1% and a viability, T/C [9] of 84.4%. The viability, T/C [10] was 49%, the viability, T/C [11] was 33.1% and the viability, T/C [12] was 26.2%. For the same compound, the viability, T/C [13] was 60.9%, the viability, T/C [14] was 54.6% and the viability, T/C [15] was 82.9%. The viability, T/C [16] was 62.5%, the viability, T/C [17] was 34.6% and the viability, T/C [18] was 39.9%. For the same compound, the viability, T/C [19] was 69%, the viability, T/C [20] was 78% and the viability, T/C [21] was 69.5%. For the same compound, the viability, T/C [22] was 69.8%, the viability, T/C [23] was 33.7% and the viability, T/C [24] was 23.5%. For the same compound, the viability, T/C [25] was 20.1%, the viability, T/C [26] was 28.1% and the viability, T/C [27] was 31.1%. It also gave a viability, T/C [28] of 26.1%, a viability, T/C [29] of 16.2% and a viability, T/C [30] of 13.1%. It also gave a viability, T/C [31] of 31.6%, a viability, T/C [32] of 34.1% and a viability, T/C [33] of 39%. For the same compound, the viability, T/C [34] was 37.8%, the viability, T/C [35] was 17.1% and the viability, T/C [36] was 15.1%.
Work on `CCCS(=O)(=O)Nc1ccc(F)c(C(=O)c2c[nH]c3ncc(-c4ccc(Cl)cc4)cc23)c1F` + Cc1[nH]c2ccc(F)cc2c1-c1nc2c3cccnc3c3ncccc3c2[nH]1 yielded a pIC50 (second compound 0.0316 µM) of under 5.00, a pIC50 (second compound 0.1 µM) of 5.27 and a pIC50 (second compound 0.316 µM) of 5.15. For the same compound, the pIC50 (second compound 1 µM) was 5.15, the pIC50 (second compound 3.16 µM) was over 7.50 and the pIC50 (second compound 10 µM) was over 7.50. It also gave a viability, T/C [1] of 98.2%, a viability, T/C [2] of 87.4% and a viability, T/C [3] of 116%. For the same compound, the viability, T/C [4] was 56.9%, the viability, T/C [5] was 73.5% and the viability, T/C [6] was 43.6%. For the same compound, the viability, T/C [7] was 101%, the viability, T/C [8] was 69.4% and the viability, T/C [9] was 104%. The viability, T/C [10] was 58.7%, the viability, T/C [11] was 66.3% and the viability, T/C [12] was 37.3%. It also gave a viability, T/C [13] of 94.2%, a viability, T/C [14] of 79.6% and a viability, T/C [15] of 81.2%. For the same compound, the viability, T/C [16] was 89.6%, the viability, T/C [17] was 80.4% and the viability, T/C [18] was 36.7%. The viability, T/C [19] was 87.4%, the viability, T/C [20] was 83.1% and the viability, T/C [21] was 63.9%. For the same compound, the viability, T/C [22] was 82.9%, the viability, T/C [23] was 69.4% and the viability, T/C [24] was 41.6%. It also gave a viability, T/C [25] of 28%, a viability, T/C [26] of 25.4% and a viability, T/C [27] of 31.2%. It also gave a viability, T/C [28] of 32.5%, a viability, T/C [29] of 31.9% and a viability, T/C [30] of 20.4%. The viability, T/C [31] was 40.2%, the viability, T/C [32] was 49.2% and the viability, T/C [33] was 48.7%. For the same compound, the viability, T/C [34] was 45.1%, the viability, T/C [35] was 43.5% and the viability, T/C [36] was 28.3%.
For `Cc1[nH]c2ccccc2c1CCNCc1ccc(/C=C/C(=O)NO)cc1` + Cc1[nH]c2ccc(F)cc2c1-c1nc2c3cccnc3c3ncccc3c2[nH]1, the pIC50 (second compound 0.0316 µM) was 8.42, the pIC50 (second compound 0.1 µM) was 8.37 and the pIC50 (second compound 0.316 µM) was 8.59. It also gave a pIC50 (second compound 1 µM) of 8.39, a pIC50 (second compound 3.16 µM) of over 9.00 and a pIC50 (second compound 10 µM) of over 9.00. It also gave a viability, T/C (second compound 0.0316 µM, first compound 0.000999 µM) of 85.4%, a viability, T/C (second compound 0.0316 µM, first compound 0.00316 µM) of 50.4% and a viability, T/C (second compound 0.0316 µM, first compound 0.00999 µM) of 37.9%. For the same compound, the viability, T/C [1] was 17.2%, the viability, T/C (second compound 0.0316 µM, first compound 0.0999 µM) was 8.47% and the viability, T/C [3] was 10.2%. For the same compound, the viability, T/C (second compound 0.1 µM, first compound 0.000999 µM) was 76.9%, the viability, T/C (second compound 0.1 µM, first compound 0.00316 µM) was 50.8% and the viability, T/C (second compound 0.1 µM, first compound 0.00999 µM) was 41.8%. For the same compound, the viability, T/C [7] was 14.9%, the viability, T/C (second compound 0.1 µM, first compound 0.0999 µM) was 7.94% and the viability, T/C [9] was 12.1%. For the same compound, the viability, T/C (second compound 0.316 µM, first compound 0.000999 µM) was 80.3%, the viability, T/C (second compound 0.316 µM, first compound 0.00316 µM) was 37.7% and the viability, T/C (second compound 0.316 µM, first compound 0.00999 µM) was 32.9%. For the same compound, the viability, T/C [13] was 16.5%, the viability, T/C (second compound 0.316 µM, first compound 0.0999 µM) was 7.47% and the viability, T/C [15] was 10.4%. The viability, T/C (second compound 1 µM, first compound 0.000999 µM) was 51.6%, the viability, T/C (second compound 1 µM, first compound 0.00316 µM) was 59.6% and the viability, T/C (second compound 1 µM, first compound 0.00999 µM) was 30.3%. For the same compound, the viability, T/C [19] was 15.5%, the viability, T/C (second compound 1 µM, first compound 0.0999 µM) was 9.36% and the viability, T/C [21] was 8.79%. For the same compound, the viability, T/C (second compound 3.16 µM, first compound 0.000999 µM) was 23.2%, the viability, T/C (second compound 3.16 µM, first compound 0.00316 µM) was 27.4% and the viability, T/C (second compound 3.16 µM, first compound 0.00999 µM) was 23.9%. The viability, T/C [25] was 17.2%, the viability, T/C (second compound 3.16 µM, first compound 0.0999 µM) was 9.73% and the viability, T/C [27] was 7.69%. For the same compound, the viability, T/C (second compound 10 µM, first compound 0.000999 µM) was 32.9%, the viability, T/C (second compound 10 µM, first compound 0.00316 µM) was 34% and the viability, T/C (second compound 10 µM, first compound 0.00999 µM) was 23.1%. The viability, T/C [31] was 13.5%, the viability, T/C (second compound 10 µM, first compound 0.0999 µM) was 9.1% and the viability, T/C [33] was 10.7%.
`O=C(NO)c1cnc(N2CCN(S(=O)(=O)c3ccc4ccccc4c3)CC2)nc1` + Cc1[nH]c2ccc(F)cc2c1-c1nc2c3cccnc3c3ncccc3c2[nH]1 gave a pIC50 (second compound 0.0316 µM) of 7.29, a pIC50 (second compound 0.1 µM) of 7.24 and a pIC50 (second compound 0.316 µM) of 7.32. The pIC50 (second compound 1 µM) was 7.33, the pIC50 (second compound 3.16 µM) was over 7.50 and the pIC50 (second compound 10 µM) was over 7.50. For the same compound, the viability, T/C [1] was 69.7%, the viability, T/C [2] was 21.1% and the viability, T/C [3] was 11.5%. The viability, T/C [4] was 7.28%, the viability, T/C [5] was 0.23% and the viability, T/C [6] was 0.1%. For the same compound, the viability, T/C [7] was 68.2%, the viability, T/C [8] was 33.2% and the viability, T/C [9] was 15.2%. For the same compound, the viability, T/C [10] was 5.55%, the viability, T/C [11] was 0.5% and the viability, T/C [12] was 0.09%. For the same compound, the viability, T/C [13] was 60.2%, the viability, T/C [14] was 31.4% and the viability, T/C [15] was 17.2%. For the same compound, the viability, T/C [16] was 7.41%, the viability, T/C [17] was 1% and the viability, T/C [18] was 0.08%. It also gave a viability, T/C [19] of 60.2%, a viability, T/C [20] of 29% and a viability, T/C [21] of 16.6%. For the same compound, the viability, T/C [22] was 6.03%, the viability, T/C [23] was 1.47% and the viability, T/C [24] was 0.08%. The viability, T/C [25] was 25.8%, the viability, T/C [26] was 19.7% and the viability, T/C [27] was 17.1%. It also gave a viability, T/C [28] of 7.07%, a viability, T/C [29] of 2.05% and a viability, T/C [30] of 0.09%. The viability, T/C [31] was 29.5%, the viability, T/C [32] was 22.4% and the viability, T/C [33] was 14.3%. The viability, T/C [34] was 6.09%, the viability, T/C [35] was 2.61% and the viability, T/C [36] was 0.11%.
